One data set relates to PPE lesions. Nature of the data set: Rat model of Doxil-induced palmar-plantar erythrodysesthesia (PPE). It counts as in vivo, Sprague-Dawley rats. The protocol:
PPE score is the product of Severity Score and percentage of body area affected. Overall PPE score is the sum of scores for each body area.
24 male Sprague-Dawley rats weighing between 250 to 300 grams(g) were intravenously (IV) treated with Doxil® weekly for 5 cycles of administration. The dosage administered was 2.5 mg/kg IV. […] The rats were observed weekly for lesions and scoring (FIG. 1). Scores for severity and percentage affected body area were analyzed and reported on final observation.
Sprague-Dawley rats were treated with amifostine at a dosage of 100 or 200 milligram/kilogram (mg/kg) IV, weekly, approximately 15 minutes before each Doxil® injection or treated with amifostine, 100 mg/kg IV, twice weekly at 15 min before and 3 days after Doxil injection (FIG. 2).

In another data set the test system is Lewis lung tumors. Nature of the data set: Growth of SC Lewis lung tumors.
The subject of the next data set is C26 colon tumors. Nature of the data set: Survival of mice with IP C26 colon tumors. It counts as in vivo, BalbC mice. The conditions noted are these: amifostine 200 mg/kg for five administrations. The protocol: Euthanasia was provided for animals with weight loss greater than 20% or with clinical signs of distress. Survival of female BalbC mice with IP C26 colon tumors treated once with Doxil® (8 mg/kg) (tumor inoculation: 10^6 cells IP). Animals were administered 200 mg/kg of amifostine subcutaneously (SC) prior to Doxil® administration and 1, 2, 4 and 6 days after Doxil® administration (FIG. 4).

Data set [1] has as its system murine and human xenograft tumor models. The conditions noted are these: in vivo; cited from earlier work.
Data set [2] deals with canine non-Hodgkin's lymphoma. The conditions noted are these: cited from earlier work.

Procedure for Lewis lung tumors: Doxil® was administered 4 mg/kg IV, weekly for 3 cycles. Amifostine, 100 or 200 mg/kg IV, was administered before and 1, 2, and 3 days after each Doxil® treatment cycle.

As to `NCCCNCCSP(=O)(O)O` [amifostine], the “overall PPE severity score” value is recorded as 4.33 with PPE lesions (amifostine 100 mg/kg IV twice weekly, 15 min before and 3 days after Doxil 2.5 mg/kg, p<0.02); 7.94 with PPE lesions (amifostine 100 mg/kg IV weekly, 15 min before each Doxil 2.5 mg/kg, not significant); 3.18 in the data set with PPE lesions (amifostine 200 mg/kg IV weekly before each Doxil 2.5 mg/kg, p<0.01). Besides, the “incidence of PPE” value with PPE lesions (amifostine treatment with liposomal doxorubicin 2.5 mg/kg weekly) was “reduced”. For the same compound, the “rate of tumor growth” value with Lewis lung tumors (Doxil 4 mg/kg IV weekly for 3 cycles, amifostine 100 or 200 mg/kg IV before and 1, 2, 3 days after each Doxil) was “did not affect rate of tumor growth”. The “toxicity to the animals” value in the data set on Lewis lung tumors (amifostine 200 mg/kg days 0-3 of each Doxil treatment cycle) was “not significantly toxic”. The “toxicity (weight loss, lethargy)” value with C26 colon tumors is recorded as “Significant toxicity”.

For the compound `Cc1ncc(CO)c(CO)c1O` [pyridoxine], in data set [1], the “effect of pyridoxine co-treatment on therapeutic effect of liposomal doxorubicin” value is “does not reduce the therapeutic effect”. In data set [2] (liposomal doxorubicin 1 mg/kg q 3 weeks x5, pyridoxine 50 mg tid oral 15 weeks, p=0.032), the “likelihood of severe PPE and discontinuation, placebo-treated versus pyridoxine-treated dogs (relative risk)” value was 4.2 fold. In addition, the “remission rates between groups” value in data set [2] (pyridoxine versus placebo) is given as “No difference”. In addition, the duration of remission in data set [2] (pyridoxine-treated dogs, placebo 48 days, p=0.084) is 159 days. For the same compound, the survival in data set [2] (pyridoxine-treated dogs, placebo 130 days, p=0.182) is reported as 201 days.

These data come from patent US20020028237A1, “Method for reducing toxicity of a cytotoxic agent” (priority 2000, published 2002).
